Where two headings read alike, the source gives them in different places.
Test system: HIV-1 LAI envelope single-round infectious reporter virus
Assay: Single-round infectious luciferase reporter virus (HIV-1 LAI envelope) infection of MT2 cells
Type: cell-based
Details: Human immunodeficiency virus 1, MT2, 72 h
Description: • Virus production—Human embryonic Kidney cell line, 293T (HEK 293T), was propagated in Dulbecco's Modified Eagle Medium (Invitrogen, Carlsbad, Calif.) containing 10% fetal bovine serum (FBS, Sigma, St. Louis, Mo.). The human T-cell leukemia cell MT2 (AIDS Research and Reference Reagent Program, Cat. 237) was propagated in RPMI 1640 (Invitrogen, Carlsbad, Calif.) containing 10% fetal bovine serum (FBS, Hyclone, Logan, Utah) • Virus infection—Single-round infectious reporter virus was produced by co-transfecting HEK 293T cells with plasmide expressing the HIV-1 LAI envelope along with a plasmid containing an HIV-1 LAI proviral cDNA with the envelope gene replaced by a firefly luciferase reporter gene (Chen et al., Ref 41). Transfections were performed using lipofectAMINE PLUS reagent as described by the manufacturer (Invitrogen, Carlsbad, Calif.). Experimental Procedure • 1. MT2 cells were plated in black, 384 well plates at a cell density of 5×10^3 cells per well in 25 μl RPMI 1640 containing 10% FBS. • 2. Compound (diluted in dimethylsulfoxide and growth medium) was added to cells at 12.5 μl/well, so that the final assay concentration would be ≦50 nM. • 3. 12.5 μl of single-round infectious reporter virus in Dulbecco's Modified Eagle Medium was added to the plated cells and compound at an approximate multiplicity of infection (MOI) of 0.01, resulting in a final volume of 50 μl per well. • 4. Virus-infected cells were incubated at 37 degrees Celsius in a CO2 incubator and harvested 72 h after infection. • 5. Viral infection was monitored by measuring luciferase expression in the infected cells using a luciferase reporter gene assay kit (Steady-Glo, Promega, Madison, Wis.) as described by the manufacturer. Luciferase activity was then quantified by measuring luminescence using an EnVision Multilabel Plate Readers (PerkinElmer, Waltham, Mass.). • 6. The percent inhibition for each compound was calculated by quantifying the level of luciferase expression in cells infected in the presence of each compound as a percentage of that observed for cells infected in the absence of compound and subtracting such a determined value from 100. • 7. An EC50 provides a method for comparing the antiviral potency of the compounds of this disclosure. The effective concentration for fifty percent inhibition (EC50) was calculated with the Microsoft Excel Xlfit curve fitting software. For each compound, curves were generated from percent inhibition calculated at 10 different concentrations by using a four parameter logistic model (model 205). Table 1 is the key for the data in Table 2.

[1] = read-out: EC50 Group from Table 1

SMILES | EC50 [1] [nM] | EC50 [nM]
COc1cnc(-n2cnc(C)n2)c2[nH]cc(C(=O)C(=O)N3C(C)Cc4c(-c5ccccc5)ncnc4N3C)c12 (stereo not drawn) [Compound 2003, 1-(1,3-dimethyl-5-phenyl-3,4-dihydropyrimido[4,5-c]pyridazin-2(1H)-yl)-2-(4-methoxy-7-(3-methyl-1H-1,2,4-triazol-1-yl)-1H-pyrrolo[2,3-c]pyridin-3-yl)ethane-1,2-dione] | < 500 | –
COc1cnc(-n2cnc(C)n2)c2[nH]cc(C(=O)C(=O)N3CC/C(=C(/C#N)c4ccccc4)CN3C)c12 [Compound 1006, (Z)-2-(1-(2-(4-methoxy-7-(3-methyl-1H-1,2,4-triazol-1-yl)-1H-pyrrolo[2,3-c]pyridin-3-yl)-2-oxoacetyl)-2-methylpiperazin-4-ylidene)-2-phenylacetonitrile] | < 500 | 456
COc1cnc(-n2cnc(C)n2)c2[nH]cc(C(=O)C(=O)N3CC/C(=C(\C#N)c4ccccc4)CN3)c12 [Compound 1002] | < 500 | 0.29
N#C/C(=C1\CCN(C(=O)C(=O)c2c[nH]c3c(-n4ccnn4)ncc(F)c23)NC1)c1ccccc1 [Compound 1001] | < 500 | –
COc1cnc(-n2cnc(C)n2)c2[nH]cc(C(=O)C(=O)N3CCc4c(ncnc4-c4ccccc4)N3)c12 [Compound 2004, 1-(4-methoxy-7-(3-methyl-1H-1,2,4-triazol-1-yl)-1H-pyrrolo[2,3-c]pyridin-3-yl)-2-(5-phenyl-3,4-dihydropyrimido[4,5-c]pyridazin-2(1H)-yl)ethane-1,2-dione] | < 500 | –
COc1cnc(-n2cnc(C)n2)c2[nH]cc(C(=O)C(=O)N3CCc4c(-c5ccccn5)ncnc4N3C)c12 [Compound 2002, 1-(4-methoxy-7-(3-methyl-1H-1,2,4-triazol-1-yl)-1H-pyrrolo[2,3-c]pyridin-3-yl)-2-(1-methyl-5-(pyridin-2-yl)-3,4-dihydropyrimido[4,5-c]pyridazin-2(1H)-yl)ethane-1,2-dione] | < 500 | –
COc1cnc(-n2cnc(C)n2)c2[nH]cc(C(=O)C(=O)N3CCc4c(-c5ccccc5)ncnc4N3C)c12 [Compound 2001, 1-(4-methoxy-7-(3-methyl-1H-1,2,4-triazol-1-yl)-1H-pyrrolo[2,3-c]pyridin-3-yl)-2-(1-methyl-5-phenyl-3,4-dihydropyrimido[4,5-c]pyridazin-2(1H)-yl)ethane-1,2-dione] | < 500 | –

Reference: US9193725B2, “Cyclic hydrazine derivatives as HIV attachment inhibitors” (priority 2012, dated 2015)
